Assay results published in article PMC6072471 (MedChemComm, 2017).

Legend:
rVSIV-ΔG-G pseudotype = test: microbe, parasite or virus in culture; assay type: cell-based, Vesicular stomatitis Indiana virus; details: for IC50: Vesicular stomatitis Indiana virus, HEK293, 24 h, read-out: ICVSIV50
[1] = test system: rVSIV-ΔG-MarV-GP pseudotype; test: organism not typed; assay type: cell-based, Marburg virus; details: for IC50: HEK293, 24 h, read-out: ICMarV50

Row | Compound | activity against rVSIV-ΔG-G (in words) (rVSIV-ΔG-G pseudotype) | IC50 (rVSIV-ΔG-G pseudotype) [µM] | toxicity (in words) (HEK293 cells) | activity against rVSIV-ΔG-MarV-GP (in words) [1] | IC50 [1] [µM] | specificity of inhibition of MarV-GP-mediated infection (in words) [1]
1 | CC1(C)[C@H]2CC[C@]1(C)[C@H](O)C2 [(–)-Borneol, reference compound] | not active | > 650 | nontoxic | not active | 203 | –
2 | CC1(C)[C@H]2CC[C@]1(C)[C@H](OC(=O)CN1CCCC1)C2 [Compound 1] | – | 239 ± 19 | – | – | 52 ± 5 | non-specific inhibitors
3 | CC1(C)[C@H]2CC[C@]1(C)[C@H](OC(=O)CCN1CCCC1)C2 [Compound 2] | – | 29 ± 6 | – | – | 12 ± 1 | non-specific inhibitors
4 | CC1(C)[C@H]2CC[C@]1(C)[C@H](OC(=O)CN1CCCCC1)C2 [Compound 3] | – | 102 ± 9 | – | – | 86 ± 11 | –
5 | CC1(C)[C@H]2CC[C@]1(C)[C@H](OC(=O)CCN1CCCCC1)C2 [Compound 4] | – | 121 ± 7 | – | – | 9 ± 1 | –
6 | CC1CCN(CC(=O)O[C@@H]2C[C@@H]3CC[C@@]2(C)C3(C)C)CC1 [Compound 5] | – | 77 ± 16 | – | – | 28 ± 2 | –
7 | CC1CCN(CCC(=O)O[C@@H]2C[C@@H]3CC[C@@]2(C)C3(C)C)CC1 [Compound 6] | – | 79 ± 19 | – | – | 4 ± 1 | highest virus-specific activity
8 | CC1(C)[C@H]2CC[C@]1(C)[C@H](OC(=O)CN1CCOCC1)C2 [Compound 7] | – | 267 ± 10 | – | do not exhibit activity | 263 ± 24 | –
9 | CC1(C)[C@H]2CC[C@]1(C)[C@H](OC(=O)CCN1CCOCC1)C2 [Compound 8] | – | 257 ± 12 | – | do not exhibit activity | 78 ± 7 | –
10 | CN1CCN(CC(=O)O[C@@H]2C[C@@H]3CC[C@@]2(C)C3(C)C)CC1 [Compound 9] | – | 187 ± 24 | – | – | 47 ± 3 | –
11 | CN1CCN(CCC(=O)O[C@@H]2C[C@@H]3CC[C@@]2(C)C3(C)C)CC1 [Compound 10] | – | 318 ± 23 | – | – | 19 ± 1 | –
12 | CCN1CCN(CC(=O)O[C@@H]2C[C@@H]3CC[C@@]2(C)C3(C)C)CC1 [Compound 11] | – | 447 ± 15 | – | – | 29 ± 2 | –
13 | CCN1CCN(CCC(=O)O[C@@H]2C[C@@H]3CC[C@@]2(C)C3(C)C)CC1 [Compound 12] | – | 106 ± 5 | – | – | 10 ± 2 | –
14 | CC1(C)[C@H]2CC[C@]1(C)[C@H](OC(=O)CN1CCNCC1)C2 [Compound 13] | – | 69 ± 13 | – | – | 20 ± 1 | –
15 | CC1(C)[C@H]2CC[C@]1(C)[C@H](OC(=O)CCN1CCNCC1)C2 [Compound 14] | – | 102 ± 25 | – | – | 10 ± 4 | –
16 | CCCCN(CCCC)CC(=O)O[C@@H]1C[C@@H]2CC[C@@]1(C)C2(C)C [Compound 15] | – | 20 ± 1 | highest toxicity | – | 11 ± 1 | –
17 | CCCCN(CCCC)CCC(=O)O[C@@H]1C[C@@H]2CC[C@@]1(C)C2(C)C [Compound 16] | – | 48 ± 5 | highest toxicity | – | 6 ± 1 | –
18 | COc1ccc(CCN(C)CCCC(C#N)(c2ccc(OC)c(OC)c2)C(C)C)cc1OC (stereo not shown) [Verapamil, reference compound] | – | > 200 | – | – | 13 ± 1 | –
